PubChem BioAssay (NCI)
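48-hour exposure; five concentrations; linearly interpolated endpoints. TGI: total growth inhibition.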

Tests used:
Test in all cases: NCI anticancer screen, dose series, 48 h
786-0 renal = test system: 786-0 renal
A549 NSCLC = test system: A549 NSCLC
BT-549 breast = test system: BT-549 breast
CAKI-1 renal = test system: CAKI-1 renal
CCRF-CEM leukemia = test system: CCRF-CEM leukemia
COLO 205 colon = test system: COLO 205 colon
DU-145 prostate = test system: DU-145 prostate
EKVX NSCLC = test system: EKVX NSCLC
HCC-2998 colon = test system: HCC-2998 colon
HCT-116 colon = test system: HCT-116 colon
HCT-15 colon = test system: HCT-15 colon
HL-60(TB) leukemia = test system: HL-60(TB) leukemia
HOP-62 NSCLC = test system: HOP-62 NSCLC
HOP-92 NSCLC = test system: HOP-92 NSCLC
HS 578T breast = test system: HS 578T breast
HT29 colon = test system: HT29 colon
IGROV1 ovarian = test system: IGROV1 ovarian
K-562 leukemia = test system: K-562 leukemia
KM12 colon = test system: KM12 colon
LOX IMVI melanoma = test system: LOX IMVI melanoma
M14 melanoma = test system: M14 melanoma
MALME-3M melanoma = test system: MALME-3M melanoma
MDA-MB-231 breast = test system: MDA-MB-231 breast
MDA-MB-435 = test system: MDA-MB-435
MDA-N = test system: MDA-N
MOLT-4 leukemia = test system: MOLT-4 leukemia
NCI-H226 lung = test system: NCI-H226 lung
NCI-H23 lung = test system: NCI-H23 lung
NCI-H460 lung = test system: NCI-H460 lung
NCI-H522 lung = test system: NCI-H522 lung
NCI/ADR-RES ovarian = test system: NCI/ADR-RES ovarian
OVCAR-3 ovarian = test system: OVCAR-3 ovarian
OVCAR-4 ovarian = test system: OVCAR-4 ovarian
OVCAR-5 ovarian = test system: OVCAR-5 ovarian
OVCAR-8 ovarian = test system: OVCAR-8 ovarian
RPMI-8226 leukemia = test system: RPMI-8226 leukemia
RXF 393 renal = test system: RXF 393 renal
SF-268 CNS = test system: SF-268 CNS
SF-295 CNS = test system: SF-295 CNS
SF-539 CNS = test system: SF-539 CNS
SK-MEL-2 melanoma = test system: SK-MEL-2 melanoma
SK-MEL-28 melanoma = test system: SK-MEL-28 melanoma
SK-MEL-5 melanoma = test system: SK-MEL-5 melanoma
SK-OV-3 ovarian = test system: SK-OV-3 ovarian
SN12C renal = test system: SN12C renal
SNB-19 CNS = test system: SNB-19 CNS
SNB-75 CNS = test system: SNB-75 CNS
SR leukemia = test system: SR leukemia
SW-620 colon = test system: SW-620 colon
T-47D breast = test system: T-47D breast
TK-10 renal = test system: TK-10 renal
U251 CNS = test system: U251 CNS
UACC-257 melanoma = test system: UACC-257 melanoma
UO-31 renal = test system: UO-31 renal
ACHN renal = test system: ACHN renal
MCF7 breast = test system: MCF7 breast
PC-3 prostate = test system: PC-3 prostate
UACC-62 melanoma = test system: UACC-62 melanoma

CCN(CC)S(=O)(=O)c1ccc2nc(NC(=O)OC)[nH]c2c1
TGI (786-0 renal): > 100 µM | TGI (A549 NSCLC): > 100 µM | TGI (BT-549 breast): > 100 µM | TGI (CAKI-1 renal): > 100 µM | TGI (CCRF-CEM leukemia): > 100 µM | TGI (COLO 205 colon): > 100 µM | TGI (DU-145 prostate): > 100 µM | TGI (EKVX NSCLC): > 100 µM | TGI (HCC-2998 colon): > 100 µM | TGI (HCT-116 colon): > 100 µM | TGI (HCT-15 colon): > 100 µM | TGI (HL-60(TB) leukemia): 63.4 µM | TGI (HOP-62 NSCLC): > 100 µM | TGI (HOP-92 NSCLC): > 100 µM | TGI (HS 578T breast): > 100 µM | TGI (HT29 colon): > 100 µM | TGI (IGROV1 ovarian): > 100 µM | TGI (K-562 leukemia): > 100 µM | TGI (KM12 colon): > 100 µM | TGI (LOX IMVI melanoma): > 100 µM | TGI (M14 melanoma): > 100 µM | TGI (MALME-3M melanoma): > 100 µM | TGI (MDA-MB-231 breast): > 100 µM | TGI (MDA-MB-435): 36.8 µM | TGI (MDA-N): 65.9 µM | TGI (MOLT-4 leukemia): 61.7 µM | TGI (NCI-H226 lung): > 100 µM | TGI (NCI-H23 lung): > 100 µM | TGI (NCI-H460 lung): > 100 µM | TGI (NCI-H522 lung): > 100 µM | TGI (NCI/ADR-RES ovarian): > 100 µM | TGI (OVCAR-3 ovarian): > 100 µM | TGI (OVCAR-4 ovarian): > 100 µM | TGI (OVCAR-5 ovarian): > 100 µM | TGI (OVCAR-8 ovarian): > 100 µM | TGI (RPMI-8226 leukemia): 47.1 µM | TGI (RXF 393 renal): > 100 µM | TGI (SF-268 CNS): > 100 µM | TGI (SF-295 CNS): > 100 µM | TGI (SF-539 CNS): 74.3 µM | TGI (SK-MEL-2 melanoma): > 100 µM | TGI (SK-MEL-28 melanoma): > 100 µM | TGI (SK-MEL-5 melanoma): > 100 µM | TGI (SK-OV-3 ovarian): > 100 µM | TGI (SN12C renal): > 100 µM | TGI (SNB-19 CNS): > 100 µM | TGI (SNB-75 CNS): > 100 µM | TGI (SR leukemia): 83.9 µM | TGI (SW-620 colon): > 100 µM | TGI (T-47D breast): > 100 µM | TGI (TK-10 renal): > 100 µM | TGI (U251 CNS): > 100 µM | TGI (UACC-257 melanoma): > 100 µM | TGI (UO-31 renal): > 100 µM

CC(C1CCCC1=O)C1CCCC1=O (stereo not drawn)
TGI (786-0 renal): > 100 µM | TGI (A549 NSCLC): > 100 µM | TGI (ACHN renal): > 100 µM | TGI (BT-549 breast): > 100 µM | TGI (CAKI-1 renal): > 100 µM | TGI (CCRF-CEM leukemia): > 100 µM | TGI (COLO 205 colon): > 100 µM | TGI (DU-145 prostate): > 100 µM | TGI (EKVX NSCLC): > 100 µM | TGI (HCC-2998 colon): > 100 µM | TGI (HCT-116 colon): > 100 µM | TGI (HCT-15 colon): > 100 µM | TGI (HL-60(TB) leukemia): > 100 µM | TGI (HOP-62 NSCLC): > 100 µM | TGI (HS 578T breast): > 100 µM | TGI (HT29 colon): > 100 µM | TGI (IGROV1 ovarian): > 100 µM | TGI (K-562 leukemia): > 100 µM | TGI (KM12 colon): > 100 µM | TGI (LOX IMVI melanoma): > 100 µM | TGI (M14 melanoma): > 100 µM | TGI (MALME-3M melanoma): > 100 µM | TGI (MCF7 breast): > 100 µM | TGI (MDA-MB-231 breast): > 100 µM | TGI (MDA-N): > 100 µM | TGI (MOLT-4 leukemia): > 100 µM | TGI (NCI-H226 lung): > 100 µM | TGI (NCI-H23 lung): > 100 µM | TGI (NCI-H460 lung): > 100 µM | TGI (NCI-H522 lung): > 100 µM | TGI (NCI/ADR-RES ovarian): > 100 µM | TGI (OVCAR-4 ovarian): > 100 µM | TGI (OVCAR-5 ovarian): > 100 µM | TGI (OVCAR-8 ovarian): > 100 µM | TGI (PC-3 prostate): > 100 µM | TGI (RXF 393 renal): > 100 µM | TGI (SF-268 CNS): > 100 µM | TGI (SF-295 CNS): > 100 µM | TGI (SF-539 CNS): > 100 µM | TGI (SK-MEL-2 melanoma): > 100 µM | TGI (SK-MEL-28 melanoma): > 100 µM | TGI (SK-MEL-5 melanoma): > 100 µM | TGI (SK-OV-3 ovarian): > 100 µM | TGI (SN12C renal): > 100 µM | TGI (SNB-19 CNS): > 100 µM | TGI (SNB-75 CNS): > 100 µM | TGI (SR leukemia): > 100 µM | TGI (SW-620 colon): > 100 µM | TGI (T-47D breast): > 100 µM | TGI (TK-10 renal): > 100 µM | TGI (U251 CNS): > 100 µM | TGI (UACC-257 melanoma): > 100 µM | TGI (UACC-62 melanoma): > 100 µM | TGI (UO-31 renal): > 100 µM
